Several values for one entry are separate records, joined by “and”; a condition that tells them apart may be missing. Equal entries are not always repeated. Entries after “also recorded” stand apart in the source; their conditions may differ.
Tests used:
[1] = test system: ceramide; test: Ceramide species in HEK293 cells by LC-ESI-MS/MS; assay type: cell-based; details: 10 μM, 2 h
Description: (§1) FIG. 16A-E. K145 accumulates and suppresses the S1P level. A and B) U937 cells were treated with K145 at the indicated concentrations for 3 h and the levels of K145 and S1P were measured by ESI-MS/MS. C) HEK293 cells were treated with K145 (10 μM) for 2 h. Lipids were extracted and different chain length species of ceramide were determined by LC-ESI-MS/MS. Numbers indicate chain length followed by the number of double bonds in the fatty acid. Data are averages of triplicate determinations and are expressed as pmol lipid/10^6 cells. D) U937 cells were treated with or without K145 (10 μM) for 3 h and levels of C1P species were determined by ESI-MS/MS. E) U937 cells were treated with FTY720 (1 μM) in the absence or presence of indicated K145 for 3 h, then FTY720-P was measured by ESI-MS/MS. *P<0.05 compared to control.

[2] = test system: U937 xenograft; test: U937 xenografts in nude mice, oral administration
Description: BALB/c-nu mice (n=7) with palpable U937 xenograft were treated daily with vehicle, tamibarotene (20 mg/kg), or K145 (50 mg/kg) for 15 days by oral gavage. After treatment, animals were sacrificed and tumors were removed, weighed and images were taken. […] Data are expressed as mean value±SEM. *P<0.05 compared to control group.
In this experiment, K145 was given at 50 mg/kg by oral gavage daily for 15 days and tumor volume and animal weights were measured every other day. Again, tamibarotene (20 mg/kg) was used as positive control.

[3] = test system: Raf/MEK/ERK and PI3K/Akt signaling pathways; test: Western blot analysis of ERK and Akt phosphorylation; assay type: cell-based
Description: Cells (5×10^5 per ml) were treated with various concentrations of test compound at 37° C. (5% CO2) for 3 hrs, then stimulated with TPA at a final concentration of 200 nM for 20 min. Samples from whole-cell pellets were prepared and 30 μg protein for each condition was subjected to SDS-PAGE, transferred onto a PVDF membrane, and blocked with 5% fat-free milk for 30 min. The membrane is probed with primary antibodies overnight at 4° C. followed by incubation with horseradish peroxidase-labeled anti-mouse IgG (1:5000, BD Bioscience). The immunoreactive bands are detected by chemilluminescence methods (Pierce) and visualized on Kodak Omat film. The following primary antibodies were used: phospho-p44/42 MAPK (ERK1/2, Thr202/Tyr204), p44/42 MAPK, phospho-p90RSK (Thr359/Ser363), RSK1/RSK2/RSK3 (Cell Signaling). Blots were reprobed with antibodies against α-tubulin to ensure equal loading and transfer of proteins.

[4] = test system: U937 cells; test: Cell apoptosis assay, annexin V/PI flow cytometry; assay type: cell-based, human
Description: Apoptosis was measured by flow cytometry using annexin V/propidium iodide (PI) as staining reagent. […] The cells were then incubated with annexin V-fluorescein isothiocyanate (FITC) (BD PharMingen, San Diego, Calif.) and 5 μg/mL propidium iodide (PI), and incubated for 15 minutes at room temperature in the dark per the manufacturer's instructions. The samples were analyzed by flow cytometry using a Becton Dickinson FACScan (Becton Dickinson, San Jose, Calif.) within 1 hr to determine the percentage of cells displaying annexin V staining (early apoptosis) or both annexin V and PI staining (late apoptosis).

[5] = target: T1, SphK2 (Homo sapiens, UniProt Q9NRA0); test: Phosphorylation of FTY720 (SphK2 specific substrate) in U937 cells; assay type: cell-based; parameters: U937 cells were treated with FTY720 (1 μM) in the absence or presence of indicated K145 for 3 h; endogenous in cells; host or cells: U937; details: FTY720 1 μM, 3 h
T1 sequence (Q9NRA0 1-654): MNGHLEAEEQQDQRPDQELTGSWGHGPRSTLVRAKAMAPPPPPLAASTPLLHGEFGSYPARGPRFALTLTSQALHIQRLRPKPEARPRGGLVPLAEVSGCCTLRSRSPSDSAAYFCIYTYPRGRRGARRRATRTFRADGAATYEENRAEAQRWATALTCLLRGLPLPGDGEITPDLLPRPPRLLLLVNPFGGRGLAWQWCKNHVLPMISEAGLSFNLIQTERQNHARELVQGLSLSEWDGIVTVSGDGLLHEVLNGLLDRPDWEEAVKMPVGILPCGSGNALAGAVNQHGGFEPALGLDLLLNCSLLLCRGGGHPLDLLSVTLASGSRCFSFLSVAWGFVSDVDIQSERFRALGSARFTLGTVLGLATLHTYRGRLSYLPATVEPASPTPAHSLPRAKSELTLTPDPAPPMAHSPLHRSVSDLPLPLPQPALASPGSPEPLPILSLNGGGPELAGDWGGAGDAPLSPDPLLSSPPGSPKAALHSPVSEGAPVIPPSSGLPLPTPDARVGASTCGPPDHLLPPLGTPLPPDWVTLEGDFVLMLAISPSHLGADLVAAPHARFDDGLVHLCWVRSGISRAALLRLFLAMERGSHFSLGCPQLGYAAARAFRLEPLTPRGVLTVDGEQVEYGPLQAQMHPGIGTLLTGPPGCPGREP

[6] = target: T1, SphK2; test: SphK2 activity assay (sphingosine substrate, with kinetic study); assay type: biochemical
Description: A) SphK1 and SphK2 activities were measured with 5 μM sphingosine in the absence or presence of the indicated concentrations of K145 or 10 μM DMS. […] Data are expressed as percentage of control activity averaged from 2 independent experiments. Data are expressed as mean value±SEM.
SphK2 was incubated with indicated compounds at 10 μM, then the activity of SphK2 was determined. The data shown here is a relative activity of SphK2 compared to control (no inhibitor, column labeled Sph in the Figure). […] “A” and “B” refer to different batches of a compound.
SphK2 was incubated with indicated compounds at 10 μM, then the activity of SphK2 was determined. The data shown here is a relative activity of SphK2 compared to control (no inhibitor).

[7] = test system: human leukemia U937 cells; test: Cell viability assay in human leukemia U937 cells; assay type: cell-based
Description: Cells were cultured at a density of 5×10^4 (U937) or 1×10^4 (PC-3, DU145, M12, HT29) cells per well in flat bottomed 96-well plates and treated with various concentrations of test compound at 37° C. (5% CO2). After 24 h, 20 μL of CellTiter 96® Aqueous One Solution Reagent (Promega, Madison, Wis.) was added to each well according to the manufacturer's instructions. After 1 hour, the cell viability was determined by measuring the absorbance at 490 nm using a micro-plate reader.

[8] = test system: ceramide-1-phosphate (C1P); test: C1P species in U937 cells by ESI-MS/MS; assay type: cell-based, human; details: 10 μM, 3 h
Description: as §1
Next we examined whether K145 affects cellular levels of S1P. […] Therefore, we further characterized K145 in U937 cells. […] This might be due to the fact that many enzymes such as SphK1, SphK2, S1P lyase, and S1P phosphatise, not just SphK2, are involved in the regulation of cellular S1P. […] To further confirm its SphK2 selectivity, we then tested the effects of K145 on the phosphorylation of FTY720, a SphK2 specific substrate.

Structure (SMILES): CCCCOc1ccc(CC/C=C2\SC(=O)N(CCN)C2=O)cc1 [K145, 3-(2-aminoethyl)-5-[3-(4-butoxyl-phenyl)-propylidene]-thiazolidine-2,4-dione]
- ceramide levels [1]: without significant effects
- oral availability ([2]; 50 mg/kg oral gavage): orally available
- toxicity ([2]; 50 mg/kg oral, 15 days): no apparent toxicity was observed
- body weights ([2]; 50 mg/kg oral, beginning of the treatment, recovered later): slight decrease of body weights
- TGI (tumor growth inhibition) ([2]; oral gavage daily 15 days, K145 50 mg/kg, tamibarotene 20 mg/kg): 51.25%
- phosphorylation of both ERK and Akt ([3]; 3 μM, 3 hrs treatment, then TPA stimulation): significantly inhibited
- inhibition of Raf/MEK/ERK and PI3K/Akt signaling pathways ([3]; Western blot, FIGS. 9 and 10): inhibits
- induction of apoptosis in U937 cells ([4]; 5 μM, after 18 hrs): significantly induced apoptosis
- induction of apoptosis in U937 cells ([4]; 10 μM, 4 hrs treatment): significantly induced apoptosis
- induction of apoptosis in U937 cells ([4]; varying concentrations and intervals): significantly and dose-dependently induced apoptosis
- phosphorylation of FTY720 [5]: inhibited
- Ki ([6]; Lineweaver-Burk analysis, increasing concentrations of sphingosine): 6.4 ± 0.7 µM
- IC50 ([6]; recombinant SphK2, 5 μM sphingosine): 5 µM and 4.3 µM
- inhibition of SphK2 activity (in words) ([6]; relative activity vs no inhibitor, compounds at 10 μM (FIGS. 1, 3, 5)): significantly inhibit SphK2; also recorded: inhibits SphK2
- type of SphK2 inhibition ([6]; with the substrate sphingosine): competitive inhibitor
- IC50 for proliferation of tested cancer cells (in words) ([7]; FIG. 8, U937 cells, 24 h): single digit micromolar
- inhibition of growth/proliferation of U937 cells (in words) ([7]; human leukemia U937 cells): dose-dependently inhibits the growth
- level of ceramide-1-phosphate (C1P) [8]: not significantly affected

— patent publication US9598384B2, “3-(2-amino-ethyl)-alkylidene)-thiazolidine-2,4-dione and 1-(2-amino-ethyl)-alkylidene-1,3-dihydro-indol-2-one derivatives as selective sphingosine kinase 2 inhibitors” (VIRGINIA COMMONWEALTH UNIVERSITY, priority 2012, dated 2017)
